#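 How tested: cells in 96-well plates exposed to compound for 48 hours at five concentrations. Definition used: TGI = concentration required for complete inhibition of growth.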
# Columns and labels:
# Assay in all cases: NCI tumour cell line growth inhibition, 48 h
# COLO 205 colon = tested on: COLO 205 colon
# EKVX NSCLC = tested on: EKVX NSCLC
# HCC-2998 colon = tested on: HCC-2998 colon
# HL-60(TB) leukemia = tested on: HL-60(TB) leukemia
# HS 578T breast = tested on: HS 578T breast
# HT29 colon = tested on: HT29 colon
# IGROV1 ovarian = tested on: IGROV1 ovarian
# K-562 leukemia = tested on: K-562 leukemia
# KM12 colon = tested on: KM12 colon
# M14 melanoma = tested on: M14 melanoma
# MOLT-4 leukemia = tested on: MOLT-4 leukemia
# NCI/ADR-RES ovarian = tested on: NCI/ADR-RES ovarian
# PC-3 prostate = tested on: PC-3 prostate
# RXF 393 renal = tested on: RXF 393 renal
# SK-MEL-28 melanoma = tested on: SK-MEL-28 melanoma
# SK-MEL-5 melanoma = tested on: SK-MEL-5 melanoma
# SNB-19 CNS = tested on: SNB-19 CNS
# SR leukemia = tested on: SR leukemia
# SK-MEL-2 melanoma = tested on: SK-MEL-2 melanoma
Compound,TGI (COLO 205 colon) [µM],TGI (EKVX NSCLC) [µM],TGI (HCC-2998 colon) [µM],TGI (HL-60(TB) leukemia) [µM],TGI (HS 578T breast) [µM],TGI (HT29 colon) [µM],TGI (IGROV1 ovarian) [µM],TGI (K-562 leukemia) [µM],TGI (KM12 colon) [µM],TGI (M14 melanoma) [µM],TGI (MOLT-4 leukemia) [µM],TGI (NCI/ADR-RES ovarian) [µM],TGI (PC-3 prostate) [µM],TGI (RXF 393 renal) [µM],TGI (SK-MEL-28 melanoma) [µM],TGI (SK-MEL-5 melanoma) [µM],TGI (SNB-19 CNS) [µM],TGI (SR leukemia) [µM],TGI (SK-MEL-2 melanoma) [µM]
O=C1/C(=C/c2ccccc2)CCc2ccccc21,38.2,33.7,38.6,37.8,72.4,32.7,54.3,20.5,33.8,37.4,40.8,83.2,38.6,29.7,38.3,32.3,22.7,38.9,–
O=C(O)C1(Cc2ccc3c(c2)CCC3)Cc2ccccc2C1=O (stereo not drawn),> 100,> 100,> 100,> 100,> 100,> 100,> 100,> 100,> 100,> 100,> 100,> 100,> 100,> 100,> 100,> 100,> 100,> 100,> 100
COC(=O)c1nc(-c2nc(CCNC(=O)OC(C)(C)C)sc2Cl)sc1Cl,> 100,> 100,> 100,> 100,> 100,> 100,> 100,> 100,> 100,> 100,> 100,> 100,> 100,> 100,> 100,> 100,> 100,> 100,–
COc1ccc(CCNC(=O)CCc2ccccc2CO)cc1OC,> 100,> 100,> 100,> 100,> 100,> 100,> 100,> 100,> 100,> 100,> 100,> 100,> 100,> 100,> 100,> 100,> 100,> 100,> 100
O=C(NCCNCCNC(=O)C(F)(F)F)C(F)(F)F,> 100,> 100,> 100,> 100,> 100,> 100,> 100,> 100,> 100,> 100,> 100,> 100,> 100,> 100,> 100,> 100,> 100,> 100,> 100
COC(=O)C1=C(O)CCCC(CCC(C)=O)=C1,55.2,> 100,> 100,43.8,> 100,> 100,> 100,> 100,> 100,> 100,> 100,> 100,> 100,> 100,> 100,> 100,> 100,66,> 100
O[C@H]1[C@H]2[C@H](O)C[C@H](CCOCc3ccccc3)CN2C[C@H]1O,> 100,> 100,> 100,> 100,> 100,> 100,> 100,> 100,> 100,> 100,> 100,> 100,> 100,> 100,> 100,> 100,> 100,> 100,> 100
CN(C)CCc1ccnc2nc(-c3ccc4ccccc4c3)cn12,> 100,> 100,37.2,> 100,52.8,38.9,81.8,> 100,44.3,> 100,> 100,85.3,> 100,> 100,> 100,> 100,> 100,> 100,> 100
O=[N+]([O-])c1ccc2c(c1)nc(Cc1ccc(Cl)cc1)n2C[C@@H]1CCCN2CCCCC12 (stereo partly drawn),29.2,> 41.2,18.8,66.1,43.3,28.8,26.7,> 54.1,27.9,25.9,> 44.8,30.2,> 51.7,25.3,30.1,29.5,50.5,> 100,30.7
COc1cc2c(cc1C)NC(=O)/C2=C/c1c(Cl)n(-c2ccccc2)c2ccccc12,18.5,> 100,24.2,22,> 100,> 100,> 100,> 100,> 100,63.1,33.8,67.7,> 100,38.5,> 100,22.3,> 100,32.9,36
CNC(=O)CNC(=O)C(Cc1ccc(NC(=O)CCCCC(C)=O)cc1)NC(=O)C(CCC(=O)OCc1ccccc1)NC(=O)OC(C)(C)C (stereo not drawn),> 100,> 100,> 100,> 100,> 100,> 100,> 100,> 100,> 100,> 100,> 100,> 100,> 100,> 100,> 100,> 100,> 100,> 100,–
Cn1c2ccccc2n2c3ccccc3c(=O)c(C#N)c12,> 100,> 100,> 100,> 100,66.7,> 100,> 87,> 100,> 100,> 100,17.8,> 60.1,> 100,> 100,> 100,28.4,> 100,48.3,> 100
COc1cc2ccc1OCc1cccc(n1)COc1ccc(cc1OC)C=Nc1ccc(cc1)-c1ccc(cc1)N=C2,> 100,> 100,> 100,> 100,> 100,> 100,> 100,> 100,> 100,> 100,> 100,> 100,> 100,> 100,–,> 100,> 100,> 100,> 100
CC1(C)CCC[C@@]2(C)C1C(=O)[C@@H]1O[C@]1(C)[C@@H]2CO (stereo partly drawn),85.1,> 100,66.5,51.8,> 100,> 100,> 100,> 100,> 100,> 100,> 100,> 100,> 100,75.6,80.9,> 100,> 100,24.9,66.5
CCCCCCCCCCCCCCCC(=O)OC(COC(C)=O)CO[P+](=O)O (stereo not drawn),> 100,> 100,42.7,> 100,36.6,–,59.6,> 100,48.4,28.4,80.7,80.8,> 100,> 100,> 100,> 100,> 100,62,40.6
CCOC(=O)CCC(NC(=O)c1ccc(Nc2cnc3ccc(C(F)(F)F)cc3n2)cc1)C(=O)OCC (stereo not drawn),> 100,> 89.6,> 100,> 100,> 65.9,> 100,> 47.2,> 100,> 85.3,> 100,> 100,52.7,> 100,> 90.2,> 100,> 100,> 63.7,> 100,> 100
Cc1sc(N)c(S(=O)(=O)c2ccccc2)c1C,> 100,> 100,> 100,> 100,> 100,> 100,> 100,> 100,> 100,> 100,> 100,> 100,> 100,> 100,> 100,> 100,> 100,> 100,> 100
Nc1nc(NCC2(CO)CCC2)cc(=O)[nH]1,> 100,> 100,> 100,> 100,> 100,> 100,> 100,> 100,> 100,> 100,> 100,> 100,> 100,> 100,> 100,> 100,> 100,> 100,> 100
CC(=O)Oc1cc(C)c(OC(C)=O)c2c1[C@H]1CC[C@]3(C)[C@@H](OC(C)=O)CC[C@H]3[C@@H]1CC2,–,26.4,26.9,56.7,57,46.2,32.9,86.1,28.6,30.2,33.7,41.2,26.9,33.9,29.9,31.3,32.2,> 100,–
Clc1ccc(C=NC23CC4CC(CC(C4)C2)C3)cc1Cl,> 10,> 10,> 10,> 10,> 10,> 10,> 10,> 10,> 10,> 10,> 10,> 10,> 10,> 10,> 10,> 10,> 10,> 10,> 10

# — PubChem BioAssay (NCI)
